One may read the IC50 as the point on the concentration scale where inhibition reaches its midpoint. What is called EC50 is the concentration that produces a half-maximal response. By CC50 is commonly meant the concentration giving 50% cytotoxicity.

Here are results for one compound from ChEMBL document CHEMBL4145492, “Discovery of biphenyl-substituted diarylpyrimidines as non-nucleoside reverse transcriptase inhibitors with high potency against wild-type and mutant HIV-1” (Eur J Med Chem, 2018).

The target in series [1] is Human immunodeficiency virus type 1 reverse transcriptase (Human immunodeficiency virus 1, UniProt Q72547). Nature of the series: Inhibition of recombinant wild type HIV1 reverse transcriptase p66/p51 using poly (rA)/anoligo (dT)16 as template/primer assessed as inhibition of biotin-dUTP incorporation after 40 mins by Pico-Green staining based fluorescence assay.
Series [2] can be described thus: Selectivity index, ratio of CC50 for human MT4 cells to EC50 for wild type HIV1 3B. It is filed as toxicity. To be noted: read-out: Ratio CC50/EC50.
Series [3] has as its system Human immunodeficiency virus 2. In words: Antiviral activity against HIV2 ROD infected in human MT4 cells assessed as reduction of virus-induced cytopathic effect after 4 days by MTT assay. The class given is functional, organism-based. The settings on record: Human immunodeficiency virus 2, ISOLATE ROD, MT4, 96 h. Background: Damage to the host cells serves as the signal in cytopathic effect assays.

Series [4] relates to Human immunodeficiency virus 1. Nature of the series: Antiviral activity against wild type HIV1 3B infected in human MT4 cells assessed as reduction of virus-induced cytopathic effect after 4 days by MTT assay. The settings on record: Human immunodeficiency virus 1, 3B, MT4, 96 h. The class given is functional, organism-based.
For series [5], the system named is Human immunodeficiency virus 1. Nature of the series: Potency index, ratio of nevirapine EC50 to test compound EC50 for wild type HIV1 3B infected in human MT4 cells. It is filed as functional.
Series [6] can be described thus: Cytotoxicity against human MT4 cells assessed as reduction in cell viability after 4 days by MTT assay. It is filed as cell-based.

Where only a bound is given, the exact number is not on record here.

Turning to `Cc1cc(-c2ccccc2)cc(C)c1Nc1ccnc(Nc2ccc(C#N)cc2)n1`, the half-inhibitory concentration (IC50) in series [1] was 16 nM. In addition, the selectivity ratio in series [2] was 1520. Moreover, the EC50 in series [3] was above 4170 nM; in series [4], 2.8 nM. Besides, the “Ratio EC50” value in series [5] was determined as 10. Also, the cytotoxic concentration (CC50) at 96 h in series [6] is 4170 nM.
